# Experimental data as given in ChEMBL document CHEMBL5715954, “Silencing c-Myc translation as a therapeutic strategy through targeting PI3Kδ and CK1ε in hematological malignancies” (Blood, 2017).
# Experiments:
# Design in all cases: scale not given: the % may be the effect or the level left
# [1] = target: Casein kinase I isoform gamma-3 (Homo sapiens) (UniProt Q9Y6M4); experiment: Inhibition of human CK1g3 assessed as enzyme activity at 1 uM using KRRRAL[pS]VASLPGL as substrate preincubated for 20 mins followed by [gamma-33P]-ATP addition and measured after 120 mins by radiometric Hot-SpotSM Kinase assay relative to control
# [2] = target: Casein kinase II subunit alpha' (Homo sapiens) (UniProt P19784); experiment: Inhibition of human CK2a2 assessed as enzyme activity at 1 uM using RRRDDDSDDD as substrate preincubated for 20 mins followed by [gamma-33P]-ATP addition and measured after 120 mins by radiometric Hot-SpotSM Kinase assay relative to control
# [3] = target: Casein kinase II subunit alpha (Homo sapiens) (UniProt P68400); experiment: Inhibition of human CK2a assessed as enzyme activity at 1 uM using RRRDDDSDDD as substrate preincubated for 20 mins followed by [gamma-33P]-ATP addition and measured after 120 mins by radiometric Hot-SpotSM Kinase assay relative to control
# [4] = target: Tyrosine-protein kinase Lck (Homo sapiens) (UniProt P06239); experiment: Inhibition of human LCK assessed as enzyme activity at 1 uM using poly[Glu:Tyr] (4:1) as substrate preincubated for 20 mins followed by [gamma-33P]-ATP addition and measured after 120 mins by radiometric Hot-SpotSM Kinase assay relative to control
# [5] = target: Cyclin-dependent kinase 14/Cyclin-Y (Homo sapiens) (UniProt O94921+Q8ND76); experiment: Inhibition of human CDK14/cyclin Y assessed as enzyme activity at 1 uM using RB Protein as substrate preincubated for 20 mins followed by [gamma-33P]-ATP addition and measured after 120 mins by radiometric Hot-SpotSM Kinase assay relative to control; type: protein-complex assay
# [6] = target: T1, Serine/threonine-protein kinase Chk1 (Homo sapiens) (UniProt O14757); experiment: Inhibition of human CHK1 assessed as enzyme activity at 1 uM using KKKVSRSGLYRSPSMPENLNRPR as substrate preincubated for 20 mins followed by [gamma-33P]-ATP addition and measured after 120 mins by radiometric Hot-SpotSM Kinase assay relative to control
# T1 sequence (whole entry): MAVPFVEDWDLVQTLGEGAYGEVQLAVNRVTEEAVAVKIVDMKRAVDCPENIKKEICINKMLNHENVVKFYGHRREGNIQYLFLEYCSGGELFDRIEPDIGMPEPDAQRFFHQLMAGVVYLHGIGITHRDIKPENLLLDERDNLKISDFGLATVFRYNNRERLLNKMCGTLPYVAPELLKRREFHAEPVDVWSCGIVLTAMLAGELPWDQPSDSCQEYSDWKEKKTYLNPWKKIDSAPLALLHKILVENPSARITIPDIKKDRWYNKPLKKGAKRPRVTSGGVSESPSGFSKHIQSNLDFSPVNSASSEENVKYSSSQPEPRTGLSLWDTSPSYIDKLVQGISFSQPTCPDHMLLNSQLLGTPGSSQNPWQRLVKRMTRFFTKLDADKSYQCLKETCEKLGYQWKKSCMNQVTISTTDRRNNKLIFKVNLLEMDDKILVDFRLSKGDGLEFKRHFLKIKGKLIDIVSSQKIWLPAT
# [7] = target: T2, cGMP-dependent protein kinase 2 (Homo sapiens) (UniProt Q13237); experiment: Inhibition of human PKG2 assessed as enzyme activity at 1 uM using LRRASLG as substrate preincubated for 20 mins followed by [gamma-33P]-ATP addition and measured after 120 mins by radiometric Hot-SpotSM Kinase assay relative to control
# T2 sequence (whole entry): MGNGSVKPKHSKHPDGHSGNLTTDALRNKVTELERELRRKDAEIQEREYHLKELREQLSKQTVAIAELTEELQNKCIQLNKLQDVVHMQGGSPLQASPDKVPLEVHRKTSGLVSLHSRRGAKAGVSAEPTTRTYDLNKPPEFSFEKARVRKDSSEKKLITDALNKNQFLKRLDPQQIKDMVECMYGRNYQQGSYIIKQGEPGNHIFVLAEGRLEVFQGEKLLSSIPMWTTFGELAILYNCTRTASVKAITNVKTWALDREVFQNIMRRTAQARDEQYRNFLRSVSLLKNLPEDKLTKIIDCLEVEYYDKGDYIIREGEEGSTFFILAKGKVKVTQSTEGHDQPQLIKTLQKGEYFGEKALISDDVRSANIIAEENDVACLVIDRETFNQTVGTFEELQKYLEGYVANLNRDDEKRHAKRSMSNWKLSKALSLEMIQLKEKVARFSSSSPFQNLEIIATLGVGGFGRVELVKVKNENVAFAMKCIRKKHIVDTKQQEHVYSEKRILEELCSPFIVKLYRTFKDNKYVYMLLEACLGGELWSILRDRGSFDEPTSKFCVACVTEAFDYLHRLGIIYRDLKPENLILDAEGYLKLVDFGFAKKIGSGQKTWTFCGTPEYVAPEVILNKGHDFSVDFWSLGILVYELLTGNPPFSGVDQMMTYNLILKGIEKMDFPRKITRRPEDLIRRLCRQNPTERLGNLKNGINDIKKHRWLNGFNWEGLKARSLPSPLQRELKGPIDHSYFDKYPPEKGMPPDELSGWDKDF
# [8] = target: High affinity nerve growth factor receptor (Homo sapiens) (UniProt P04629); experiment: Inhibition of human TRKA assessed as enzyme activity at 1 uM using poly[Glu:Tyr] (4:1) as substrate preincubated for 20 mins followed by [gamma-33P]-ATP addition and measured after 120 mins by radiometric Hot-SpotSM Kinase assay relative to control
# High affinity nerve growth factor receptor (Homo sapiens), sequence (P04629 33-796 limits assumed): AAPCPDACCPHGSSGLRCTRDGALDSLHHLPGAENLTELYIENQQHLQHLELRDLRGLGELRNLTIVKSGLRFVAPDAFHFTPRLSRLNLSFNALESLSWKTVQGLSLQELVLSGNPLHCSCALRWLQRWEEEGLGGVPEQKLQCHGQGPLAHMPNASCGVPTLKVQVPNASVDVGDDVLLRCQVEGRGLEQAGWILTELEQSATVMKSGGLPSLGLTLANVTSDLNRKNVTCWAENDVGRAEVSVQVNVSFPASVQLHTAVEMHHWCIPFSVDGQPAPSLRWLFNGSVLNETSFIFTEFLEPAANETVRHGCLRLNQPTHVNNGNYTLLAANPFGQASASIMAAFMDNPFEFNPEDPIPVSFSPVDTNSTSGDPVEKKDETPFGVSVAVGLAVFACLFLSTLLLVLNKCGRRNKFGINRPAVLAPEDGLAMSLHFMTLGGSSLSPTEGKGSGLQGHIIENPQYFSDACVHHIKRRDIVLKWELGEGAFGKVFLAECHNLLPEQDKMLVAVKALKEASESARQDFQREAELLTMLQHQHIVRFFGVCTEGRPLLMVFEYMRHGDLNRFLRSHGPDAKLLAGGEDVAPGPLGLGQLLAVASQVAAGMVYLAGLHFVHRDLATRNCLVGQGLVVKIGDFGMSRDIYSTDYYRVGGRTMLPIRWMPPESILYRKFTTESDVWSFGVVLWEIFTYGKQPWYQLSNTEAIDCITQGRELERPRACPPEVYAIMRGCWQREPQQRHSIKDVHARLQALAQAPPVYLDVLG
# Casein kinase II subunit alpha (Homo sapiens), sequence (P68400 whole entry, looked up): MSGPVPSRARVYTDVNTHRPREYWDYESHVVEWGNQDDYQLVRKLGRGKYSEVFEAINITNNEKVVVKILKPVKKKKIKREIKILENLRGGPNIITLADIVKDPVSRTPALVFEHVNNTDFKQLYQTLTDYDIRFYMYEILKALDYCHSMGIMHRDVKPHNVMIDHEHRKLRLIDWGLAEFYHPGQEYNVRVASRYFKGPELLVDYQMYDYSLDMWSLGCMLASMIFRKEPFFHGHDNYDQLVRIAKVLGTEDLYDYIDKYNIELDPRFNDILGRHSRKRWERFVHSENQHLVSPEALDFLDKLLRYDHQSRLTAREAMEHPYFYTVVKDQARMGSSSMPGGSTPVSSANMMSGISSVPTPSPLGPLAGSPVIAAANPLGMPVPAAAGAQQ
# Casein kinase I isoform gamma-3 (Homo sapiens), sequence (Q9Y6M4 whole entry, looked up, canonical isoform): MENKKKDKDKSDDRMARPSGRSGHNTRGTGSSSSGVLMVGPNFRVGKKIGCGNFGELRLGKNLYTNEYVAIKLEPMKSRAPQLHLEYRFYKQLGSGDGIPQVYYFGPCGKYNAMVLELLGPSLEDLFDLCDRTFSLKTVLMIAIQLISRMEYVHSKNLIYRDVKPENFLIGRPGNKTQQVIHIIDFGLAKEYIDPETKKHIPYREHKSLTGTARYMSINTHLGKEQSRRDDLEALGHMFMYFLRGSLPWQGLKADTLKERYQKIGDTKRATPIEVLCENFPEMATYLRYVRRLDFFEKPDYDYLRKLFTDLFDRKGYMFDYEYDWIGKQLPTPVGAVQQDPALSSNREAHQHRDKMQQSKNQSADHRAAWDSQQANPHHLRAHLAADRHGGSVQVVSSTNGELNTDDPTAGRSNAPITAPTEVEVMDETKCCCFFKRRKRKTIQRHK
# Casein kinase II subunit alpha' (Homo sapiens), sequence (P19784 whole entry, looked up): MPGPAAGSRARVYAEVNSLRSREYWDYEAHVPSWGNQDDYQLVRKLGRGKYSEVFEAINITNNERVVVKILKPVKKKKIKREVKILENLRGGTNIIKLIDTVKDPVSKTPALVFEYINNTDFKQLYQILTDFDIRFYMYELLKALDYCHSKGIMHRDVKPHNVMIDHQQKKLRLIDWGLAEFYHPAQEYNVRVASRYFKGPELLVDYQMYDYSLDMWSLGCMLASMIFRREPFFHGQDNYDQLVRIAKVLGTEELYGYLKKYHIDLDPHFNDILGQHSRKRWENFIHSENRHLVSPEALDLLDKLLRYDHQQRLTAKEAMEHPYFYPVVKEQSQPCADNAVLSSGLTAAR
# Tyrosine-protein kinase Lck (Homo sapiens), sequence (P06239 2-509 limits assumed): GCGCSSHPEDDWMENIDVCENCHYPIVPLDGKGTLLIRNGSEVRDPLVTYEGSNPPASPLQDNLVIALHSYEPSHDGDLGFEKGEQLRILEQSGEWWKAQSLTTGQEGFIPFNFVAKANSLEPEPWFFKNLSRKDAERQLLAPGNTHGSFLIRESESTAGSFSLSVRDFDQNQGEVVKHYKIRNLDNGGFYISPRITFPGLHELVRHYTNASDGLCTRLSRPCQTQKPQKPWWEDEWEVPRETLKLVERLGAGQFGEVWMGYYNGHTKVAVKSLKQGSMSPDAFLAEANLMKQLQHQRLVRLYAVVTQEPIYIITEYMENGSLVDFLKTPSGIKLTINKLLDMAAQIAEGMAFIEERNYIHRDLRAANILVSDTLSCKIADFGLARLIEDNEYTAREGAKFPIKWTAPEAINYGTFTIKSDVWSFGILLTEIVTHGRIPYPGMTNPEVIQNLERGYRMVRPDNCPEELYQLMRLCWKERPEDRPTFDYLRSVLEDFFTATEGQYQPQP
SMILES,Activity [1],Activity [2],Activity [3],Activity [4],Activity [5],Activity [6],Activity [7],Activity [8]
CC[C@H](Nc1ncnc2[nH]cnc12)c1nc2cccc(F)c2c(=O)n1-c1ccccc1,93.1%,91.8%,96%,88.5%,77.4%,93.2%,99.7%,91%
C[C@H](Nc1ncnc2nc[nH]c12)c1cc2cccc(Cl)c2c(=O)n1-c1ccccc1,92.9%,99.5%,83.6%,94.7%,85.3%,94.1%,99.8%,87.3%
CC(C)Oc1ccc(-c2nn([C@@H](C)c3oc4ccc(F)cc4c(=O)c3-c3cccc(F)c3)c3ncnc(N)c23)cc1F [UMBRALISIB],95.4%,86.4%,78.2%,96.8%,79.3%,95%,102%,89%
